Source: US12180187B2, “1-phenyl-5-azinylpyrazolyl-3-oxyalkyl acids and their use for controlling unwanted plant growth” (BAYER AKTIENGESELLSCHAFT, priority 2019, dated 2024)

Columns and labels:
LOLRI [1] = experiment: Pre-emergence action against LOLRI, 1280 g/ha; type: in vivo, Lolium rigidum; settings: visual scoring after about 3 weeks vs untreated controls, 100% = plants have died, 0% = like control plants
Summary of the method: (§1)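 Mono- and dicot weed seeds sown in sandy loam were treated on the covering soil surface with WP or EC formulations plus 0.5% additive at 600 L water/ha. Pots stayed in a greenhouse; damage was scored visually after ~3 weeks as percent versus untreated controls (100% = dead).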

VERPE = experiment: Pre-emergence action against VERPE, 1280 g/ha; type: in vivo, Veronica persica; settings: scored visually after about 3 weeks vs untreated controls (100% = plants have died)
Summary of the method: as §1

ECHGC = experiment: Pre-emergence action at 320 g/ha against ECHGC; type: in vivo, Echinochloa crus-galli; settings: visual scoring after about 3 weeks vs untreated controls
Summary of the method: (§2)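 WP/EC formulations applied pre-emergence to covering soil, water rate 600 l/ha, 0.5% additive. Greenhouse, ~3 weeks. Visual % damage vs untreated (0–100%).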

LOLRI [2] = experiment: Pre-emergence action at 320 g/ha against LOLRI; type: in vivo, Lolium rigidum; settings: visual scoring after about 3 weeks vs untreated controls
Summary of the method: as §2

PHBPU = experiment: Pre-emergence action at 320 g/ha against PHBPU; type: in vivo; settings: visual scoring after about 3 weeks vs untreated controls
Summary of the method: as §2

ALOMY = experiment: Post-emergence action against ALOMY, 1.28 kg/ha; type: in vivo, Alopecurus myosuroides; settings: dosage 1280 g/ha, visual rating about 3 weeks after treatment vs untreated controls
Summary of the method: (§3)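 Percent activity was scored visually ~3 wk post-spray relative to untreated plants. Treatment was post-emergence at the one-leaf stage using WP/EC in water with 0.5% additive (600 L/ha).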

ECHCG = experiment: Post-emergence action against ECHCG, 1.28 kg/ha; type: in vivo, Echinochloa crus-galli; settings: dosage 1280 g/ha, visual rating about 3 weeks after treatment vs untreated controls
Summary of the method: as §3

ABUTH [3] = experiment: Post-emergence action against ABUTH, 1.28 kg/ha; type: in vivo, Abutilon theophrasti; settings: dosage 1280 g/ha, visual rating about 3 weeks after treatment vs untreated controls (100% = plants died)
Summary of the method: as §3

STEME = experiment: Post-emergence action against STEME, 1.28 kg/ha; type: in vivo, Stellaria media; settings: dosage 1280 g/ha, visual rating about 3 weeks after treatment vs untreated controls (100% = plants died)
Summary of the method: as §3

ABUTH [4] = experiment: Post-emergence action at 320 g/ha against ABUTH; type: in vivo, Abutilon theophrasti; settings: visual rating about 3 weeks after treatment vs untreated controls
Summary of the method: (§4)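 Herbicidal effect is scored by eye about 3 weeks after a foliar spray and expressed as percent activity, with untreated plants as 0% and dead plants as 100%. Treatment is applied at the one-leaf stage of greenhouse-grown, soil-sown plants, at a water rate of 600 l/ha containing 0.5% additive.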

SETVI = experiment: Post-emergence action at 320 g/ha against SETVI; type: in vivo, Setaria viridis; settings: visual rating about 3 weeks after treatment vs untreated controls
Summary of the method: as §4

AVEFA = experiment: Post-emergence action at 320 g/ha against AVEFA; type: in vivo; settings: visual rating about 3 weeks after treatment vs untreated controls
Summary of the method: as §4

KCHSC [5] = experiment: Pre-emergence action against KCHSC, 1280 g/ha; type: in vivo, Bassia scoparia; settings: scored visually after about 3 weeks vs untreated controls (100% = plants have died)
Summary of the method: as §1

KCHSC [6] = experiment: Post-emergence action against KCHSC, 1.28 kg/ha; type: in vivo, Bassia scoparia; settings: dosage 1280 g/ha, visual rating about 3 weeks after treatment vs untreated controls (100% = plants died)
Summary of the method: as §3

SMILES	Pre-emergence action against LOLRI (LOLRI [1]) [%]	Pre-emergence action against VERPE (VERPE) [%]	Pre-emergence action against ECHGC in % (ECHGC) [%]	Pre-emergence action against LOLRI in % (LOLRI [2]) [%]	Pre-emergence action against PHBPU in % (PHBPU) [%]	Post-emergence action against ALOMY (ALOMY) [%]	Post-emergence action against ECHCG (ECHCG) [%]	Post-emergence action against ABUTH (ABUTH [3]) [%]	Post-emergence action against STEME (STEME) [%]	Post-emergence action against ABUTH in % (ABUTH [4]) [%]	Post-emergence action against SETVI in % (SETVI) [%]	Post-emergence action against AVEFA in % (AVEFA) [%]	Pre-emergence action against KCHSC (KCHSC [5]) [%]	Post-emergence action against KCHSC (KCHSC [6]) [%]	pest or weed control at 1280 g/ha (LOLRI [1]; Lolium rigidum, 504 h) [%]	pest or weed control at 1280 g/ha (VERPE; Veronica persica, 504 h) [%]	pest or weed control at 320 g/ha (LOLRI [2]; Lolium rigidum, 504 h) [%]	pest or weed control at 320 g/ha (AVEFA; Avena fatua, 504 h) [%]
CCOC(=O)COc1nn(-c2ccccc2F)c(-c2ccc(F)nc2)c1C(F)(F)F [VII-010]	100	100	100	100	90	100	100	90	100	80	90	100	–	–	–	–	–	–
COC(=O)CCOC(=O)COc1nn(-c2ccccc2F)c(-c2ccc(F)nc2)c1Br [VII-111]	100	100	100	100	–	100	100	90	100	80	90	90	–	–	–	–	–	–
CN(C)S(=O)(=O)NC(=O)COc1nn(-c2ccccc2F)c(-c2ccc(F)nc2)c1Br [Example X-005]	100	100	90	100	90	100	100	90	90	–	90	90	90	–	–	–	–	–
COC(=O)COc1nn(-c2ccccc2)c(-c2ccc(F)nc2)c1Br [VII-018]	100	100	90	100	–	100	90	90	100	80	80	80	90	90	–	–	–	–
COC(=O)[C@@H](C)Oc1nn(-c2cc(F)ccc2F)c(-c2cncc(F)c2)c1C#N [VII-147]	100	100	100	100	–	100	100	90	100	–	80	80	100	90	–	–	–	–
COC(=O)[C@@H](C)Oc1nn(-c2ccccc2F)c(-c2ccnc(F)c2)c1Br [VIII-006]	100	100	–	100	90	100	90	–	100	–	90	80	100	90	–	–	–	–
COC(=O)COc1nn(-c2ccccc2F)c(-c2ccc(F)nc2)c1F [VII-040]	100	100	90	100	–	100	100	90	100	90	100	90	–	90	–	–	–	–
CS(=O)(=O)NC(=O)COc1nn(-c2ccccc2F)c(-c2ccc(F)nc2)c1Br [Example X-004]	100	90	90	100	–	100	100	–	100	80	90	90	–	–	–	–	–	–
COC(=O)COc1nn(-c2cc(F)ccc2F)c(-c2ccc(F)nc2)c1Br [VII-089]	100	100	80	100	80	100	90	90	100	–	–	80	–	–	–	–	–	–
COC(=O)C(C)Oc1nn(-c2ccccc2)c(-c2ccc(F)nc2)c1Br (centres unmarked) [VII-026]	90	100	–	80	–	100	90	90	100	80	90	80	100	90	–	–	–	–
C=CCNC(=O)COc1nn(-c2ccccc2F)c(-c2ccc(F)nc2)c1Br [Example X-001, N-Allyl-2-{[4-bromo-1-(2-fluorophenyl)-5-(6-fluoropyridin-3-yl)-1H-pyrazol-3-yl]oxy}acetamide]	–	–	100	–	–	–	–	–	–	80	90	–	–	–	100	100	100	90
